Source: ChEMBL document CHEMBL4138146, “A Schmidt rearrangement-mediated synthesis of novel tetrahydro-benzo[1,4]diazepin-5-ones as potential anticancer and antiprotozoal agents” (Eur J Med Chem, 2017)

Columns and labels:
Type in all cases: functional
A549 = experiment: Growth inhibition of human A549/ATCC cells assessed as cell growth at 10 uM incubated for 48 hrs by sulforhodamine B assay relative to control; settings: A549, 48 h, read-out: Activity
SK-MEL-28 = experiment: Growth inhibition of human SK-MEL-28 cells assessed as cell growth at 10 uM incubated for 48 hrs by sulforhodamine B assay relative to control; settings: SK-MEL-28, 48 h, read-out: Activity
HT-29 = experiment: Growth inhibition of human HT-29 cells assessed as cell growth at 10 uM incubated for 48 hrs by sulforhodamine B assay relative to control; settings: HT-29, 48 h, read-out: Activity
SF-539 = experiment: Growth inhibition of human SF539 cells assessed as cell growth at 10 uM incubated for 48 hrs by sulforhodamine B assay relative to control; settings: SF-539, 48 h, read-out: Activity
SW-620 = experiment: Growth inhibition of human SW620 cells assessed as cell growth at 10 uM incubated for 48 hrs by sulforhodamine B assay relative to control; settings: SW-620, 48 h, read-out: Activity
PC-3 = experiment: Growth inhibition of human PC3 cells assessed as cell growth at 10 uM incubated for 48 hrs by sulforhodamine B assay relative to control; settings: PC-3, 48 h, read-out: Activity
NCI/ADR-RES = experiment: Growth inhibition of human NCI/ADR-RES cells assessed as cell growth at 10 uM incubated for 48 hrs by sulforhodamine B assay relative to control; settings: read-out: Activity
OVCAR-3 = experiment: Growth inhibition of human OVCAR3 cells assessed as cell growth at 10 uM incubated for 48 hrs by sulforhodamine B assay relative to control; settings: OVCAR-3, 48 h, read-out: Activity
Malme-3M = experiment: Growth inhibition of human MALME-3M cells assessed as cell growth at 10 uM incubated for 48 hrs by sulforhodamine B assay relative to control; settings: read-out: Activity
SK-MEL-2 = experiment: Growth inhibition of human SK-MEL-2 cells assessed as cell growth at 10 uM incubated for 48 hrs by sulforhodamine B assay relative to control; settings: SK-MEL-2, 48 h, read-out: Activity
NCI-H522 = experiment: Growth inhibition of human NCI-H522 cells assessed as cell growth at 10 uM incubated for 48 hrs by sulforhodamine B assay relative to control; settings: NCI-H522, 48 h, read-out: Activity
SK-MEL-5 = experiment: Growth inhibition of human SK-MEL-5 cells assessed as cell growth at 10 uM incubated for 48 hrs by sulforhodamine B assay relative to control; settings: SK-MEL-5, 48 h, read-out: Activity
786-0 = experiment: Growth inhibition of human 786-0 cells assessed as cell growth at 10 uM incubated for 48 hrs by sulforhodamine B assay relative to control; settings: 786-0, 48 h, read-out: Activity
LOX IMVI = experiment: Growth inhibition of human LOXIMVI cells assessed as cell growth at 10 uM incubated for 48 hrs by sulforhodamine B assay relative to control; settings: read-out: Activity
MDA-MB-231 = experiment: Growth inhibition of human MDA-MB-231 cells assessed as cell growth at 10 uM incubated for 48 hrs by sulforhodamine B assay relative to control; settings: MDA-MB-231, 48 h, read-out: Activity
NCI-H460 = experiment: Growth inhibition of human NCI-H460 cells assessed as cell growth at 10 uM incubated for 48 hrs by sulforhodamine B assay relative to control; settings: NCI-H460, 48 h, read-out: Activity
A498 = experiment: Growth inhibition of human A498 cells assessed as cell growth at 10 uM incubated for 48 hrs by sulforhodamine B assay relative to control; settings: A498, 48 h, read-out: Activity
Hs-578T = experiment: Growth inhibition of human Hs 578T cells assessed as cell growth at 10 uM incubated for 48 hrs by sulforhodamine B assay relative to control; settings: read-out: Activity
KM12 = experiment: Growth inhibition of human KM12 cells assessed as cell growth at 10 uM incubated for 48 hrs by sulforhodamine B assay relative to control; settings: KM12, 48 h, read-out: Activity
MDA-MB-435 = experiment: Growth inhibition of human MDA-MB-435 cells assessed as cell growth at 10 uM incubated for 48 hrs by sulforhodamine B assay relative to control; settings: MDA-MB-435, 48 h, read-out: Activity
SNB-75 = experiment: Growth inhibition of human SNB75 cells assessed as cell growth at 10 uM incubated for 48 hrs by sulforhodamine B assay relative to control; settings: SNB-75, 48 h, read-out: Activity
UACC-62 = experiment: Growth inhibition of human UACC62 cells assessed as cell growth at 10 uM incubated for 48 hrs by sulforhodamine B assay relative to control; settings: UACC-62, 48 h, read-out: Activity
CAKI-1 = experiment: Growth inhibition of human Caki1 cells assessed as cell growth at 10 uM incubated for 48 hrs by sulforhodamine B assay relative to control; settings: CAKI-1, 48 h, read-out: Activity
OVCAR-4 = experiment: Growth inhibition of human OVCAR4 cells assessed as cell growth at 10 uM incubated for 48 hrs by sulforhodamine B assay relative to control; settings: OVCAR-4, 48 h, read-out: Activity
COLO 205 = experiment: Growth inhibition of human COLO205 cells assessed as cell growth at 10 uM incubated for 48 hrs by sulforhodamine B assay relative to control; settings: COLO 205, 48 h, read-out: Activity
U-251 = experiment: Growth inhibition of human U251 cells assessed as cell growth at 10 uM incubated for 48 hrs by sulforhodamine B assay relative to control; settings: U-251, 48 h, read-out: Activity
TK-10 = experiment: Growth inhibition of human TK10 cells assessed as cell growth at 10 uM incubated for 48 hrs by sulforhodamine B assay relative to control; settings: TK-10, 48 h, read-out: Activity
ACHN = experiment: Growth inhibition of human ACHN cells assessed as cell growth at 10 uM incubated for 48 hrs by sulforhodamine B assay relative to control; settings: read-out: Activity
NCI-H23 = experiment: Growth inhibition of human NCI-H23 cells assessed as cell growth at 10 uM incubated for 48 hrs by sulforhodamine B assay relative to control; settings: NCI-H23, 48 h, read-out: Activity
SK-OV-3 = experiment: Growth inhibition of human SKOV3 cells assessed as cell growth at 10 uM incubated for 48 hrs by sulforhodamine B assay relative to control; settings: SK-OV-3, 48 h, read-out: Activity
BT-549 = experiment: Growth inhibition of human BT549 cells assessed as cell growth at 10 uM incubated for 48 hrs by sulforhodamine B assay relative to control; settings: BT-549, 48 h, read-out: Activity
OVCAR-8 = experiment: Growth inhibition of human OVCAR8 cells assessed as cell growth at 10 uM incubated for 48 hrs by sulforhodamine B assay relative to control; settings: OVCAR-8, 48 h, read-out: Activity
RPMI-8226 = experiment: Growth inhibition of human RPMI8226 cells assessed as cell growth at 10 uM incubated for 48 hrs by sulforhodamine B assay relative to control; settings: RPMI-8226, 48 h, read-out: Activity

Structure (SMILES) | growth at 10 µM (A549) [%] | growth at 10 µM (SK-MEL-28) [%] | growth at 10 µM (HT-29) [%] | growth at 10 µM (SF-539) [%] | growth at 10 µM (SW-620) [%] | growth at 10 µM (PC-3) [%] | growth at 10 µM (NCI/ADR-RES) [%] | growth at 10 µM (OVCAR-3) [%] | growth at 10 µM (Malme-3M) [%] | growth at 10 µM (SK-MEL-2) [%] | growth at 10 µM (NCI-H522) [%] | growth at 10 µM (SK-MEL-5) [%] | growth at 10 µM (786-0) [%] | growth at 10 µM (LOX IMVI) [%] | growth at 10 µM (MDA-MB-231) [%] | growth at 10 µM (NCI-H460) [%] | growth at 10 µM (A498) [%] | growth at 10 µM (Hs-578T) [%] | growth at 10 µM (KM12) [%] | growth at 10 µM (MDA-MB-435) [%] | also measured
CCCCOc1nc2ccc(OC)cc2cc1C1CNC(=O)c2ccccc2N1 (centres undefined) | 86.4 | 102 | 100 | 95.3 | 97.6 | 86.6 | 109 | 101 | 123 | 88.7 | 77.4 | 86.9 | 96.6 | 104 | 83.6 | 97.2 | 88.5 | 105 | 96.6 | 104 | growth at 10 µM (SNB-75): 89.5%; growth at 10 µM (UACC-62): 76.2%; growth at 10 µM (CAKI-1): 77.7%; growth at 10 µM (OVCAR-4): 99.3%; growth at 10 µM (COLO 205): 106%; growth at 10 µM (U-251): 106%; growth at 10 µM (TK-10): 97%; growth at 10 µM (ACHN): 97.3%; growth at 10 µM (NCI-H23): 99.2%; growth at 10 µM (SK-OV-3): 89.3%; growth at 10 µM (BT-549): 98.1%; growth at 10 µM (OVCAR-8): 102%; growth at 10 µM (RPMI-8226): 88.9%
CCCCn1c(=O)c(C2CNC(=O)c3ccccc3N2)cc2ccc(Cl)cc21 (centres undefined) | 92.6 | 108 | 98.7 | 82 | 100 | 93 | 101 | 112 | 103 | 99.6 | 88.8 | 97.9 | 107 | 86.3 | 81.1 | 87 | 91.3 | 102 | 98.5 | 103 | growth at 10 µM (SNB-75): 90%; growth at 10 µM (UACC-62): 80.1%; growth at 10 µM (CAKI-1): 72.5%; growth at 10 µM (OVCAR-4): 97.8%; growth at 10 µM (COLO 205): 89.6%; growth at 10 µM (U-251): 102%; growth at 10 µM (TK-10): 126%; growth at 10 µM (ACHN): 95.4%; growth at 10 µM (NCI-H23): 93.5%; growth at 10 µM (SK-OV-3): 89.8%; growth at 10 µM (BT-549): 104%; growth at 10 µM (OVCAR-8): 99.3%; growth at 10 µM (RPMI-8226): 103%
CCCCOc1nc2ccccc2cc1C1CNC(=O)c2ccccc2N1 (centres undefined) | 19.9 | 45.8 | 0.87 | -25.5 | 20.9 | 24.7 | 3.84 | -9.73 | 45.6 | 15.7 | -13.6 | 15.6 | 26.2 | 27.1 | 47.5 | 6.89 | -11.2 | 34.1 | 23.9 | -63.8 | growth at 10 µM (SNB-75): 3.14%; growth at 10 µM (UACC-62): 32.6%; growth at 10 µM (CAKI-1): 42.6%; growth at 10 µM (OVCAR-4): 47.7%; growth at 10 µM (COLO 205): 9.84%; growth at 10 µM (U-251): 18.6%; growth at 10 µM (TK-10): 34.3%; growth at 10 µM (ACHN): 46.7%; growth at 10 µM (NCI-H23): 23.8%; growth at 10 µM (SK-OV-3): 14.8%; growth at 10 µM (BT-549): 41%; growth at 10 µM (OVCAR-8): 22.4%; growth at 10 µM (RPMI-8226): 25.6%
